{"source": "paper PMC12668308", "about": "“A Novel Antimalarial Agent that Inhibits Protein Synthesis in Plasmodium falciparum” (Angewandte Chemie (International Ed. in English), 2025)", "key": {"[1]": {"tested_on": "Dd2b2^WT", "assay": "[3H]-hypoxanthine incorporation assay", "format": "cell-based, Plasmodium falciparum", "details": "Plasmodium falciparum, 72 h, read-out: Parent (Dd2b2^WT) IC50", "procedure": "(§1) P. falciparum asexual blood stage parasites were cultured in human red blood cells (RBC, Blutspende SRK, Zurich) at a hematocrit of 5% in RPMI 1640 medium. The RPMI 1640 medium (ThermoFisher Scientific #51800−043) was supplemented with the following: 24 mM NaHCO3 (pH 7.3, Sigma-Aldrich #31437−500G-R), 25 mM Hepes (Sigma-Aldrich #H4034−500G), 0.36 mM hypoxanthine (Sigma-Aldrich # H9377−25G), 100 µg mL^-1 neomycin (Sigma-Aldrich #N6386−100G) and 0.5% Albumax II (Thermo Fisher #11021−045). Additionally, 2 mM choline chloride (279 mg/L, Sigma-Aldrich #C7527−100G) was added to the culture to block the induction of sexual commitment as described. ^[31^] The RPMI 1640 medium and components were dissolved in water (Milli-Q purified), stirred for at least 3 h, and then sterile filtered (0.22 μm pore size) with a bottle top filter (Corning # 431118). Parasite cultures were maintained in an atmosphere of 3% O2, 4% CO2, and 93% N2 in air-tight chambers at 37 °C. The [^3H]-hypoxanthine incorporation assay was used to test compound activity in the specific parasite lines as described.^[32^] Briefly, compounds were dissolved in DMSO (10 mM) and diluted in a hypoxanthine-free culture medium. A limiting dilution was performed over a 64-fold range (6-step twofold dilution) in a 96-well plate in duplicates. For every starting concentration, a limiting dilution was performed over a 64-fold range (6-step twofold dilution) in a 96-well plate in two biological duplicates. Parasites were added at 100 µL to each well containing the compound to obtain a final parasitemia of 0.3% and haematocrit of 1.25%. The plates were incubated for 48 h before 0.25 µCi of [^3H]-hypoxanthine was added per well for an additional 24 h. Parasites were harvested on a glass-fiber filter with a Microbeta FilterMate cell harvester (Perkin Elmer, Waltham, USA) and radioactivity was counted using a MicroBeta2 liquid scintillation counter (Perkin Elmer, Waltham, US). […] The fifty percent inhibitory concentration (IC50) was calculated by using nonlinear, four parameter (variable slope) curve fitting as described ^[33^] after importing into GraphPad Prism (version 8.3.0).\n(§2) 31 was used for resistance selection studies using the strain Dd2b2 (kindly provided by David Fidock). Resistance selection was done as described in ^[34^]. As summarized in Table S3, an initial inoculum of 2 x 10^9 asexual blood stage parasites (at 2-2.5% parasitemia) were cultured in three independent flasks. […] Cloning via limiting dilution was performed to obtain resistant clones for further characterization as described in section 2.2.5."}, "[2]": {"tested_on": "Dd2b2^31-R2.1", "assay": "[3H]-hypoxanthine incorporation assay", "format": "cell-based, Plasmodium falciparum", "details": "Plasmodium falciparum, read-out: mean IC50 value ± s.d.", "procedure": "as §1, §2"}, "[3]": {"tested_on": "Dd2b2^31-R3.1", "assay": "[3H]-hypoxanthine incorporation assay", "format": "cell-based, Plasmodium falciparum", "details": "Plasmodium falciparum, read-out: mean IC50 value ± s.d.", "procedure": "as §1, §2"}, "[4]": {"tested_on": "Dd2b2^31-R1.2", "assay": "[3H]-hypoxanthine incorporation assay", "format": "cell-based, Plasmodium falciparum", "details": "Plasmodium falciparum, read-out: mean IC50 value ± s.d.", "procedure": "as §1, §2"}, "[5]": {"tested_on": "Dd2b2^31-R1.1", "assay": "[3H]-hypoxanthine incorporation assay", "format": "cell-based, Plasmodium falciparum", "details": "Plasmodium falciparum, read-out: mean IC50 value ± s.d.", "procedure": "as §1, §2"}, "[6]": {"tested_on": "Dd2 MMV390048 (Dd2 + pfpI4k)", "assay": "[3H]-hypoxanthine incorporation assay", "format": "cell-based, Plasmodium falciparum", "details": "Plasmodium falciparum, DD2, 72 h", "procedure": "(§3) ^[a]72-h [^3H] hypoxanthhine incorporation assay. Data is expressed as mean±s.d..\n(§4) P. falciparum asexual blood stage parasites were cultured in human red blood cells (RBC, Blutspende SRK, Zurich) at a hematocrit of 5% in RPMI 1640 medium. The RPMI 1640 medium (ThermoFisher Scientific #51800−043) was supplemented with the following: 24 mM NaHCO3 (pH 7.3, Sigma-Aldrich #31437−500G-R), 25 mM Hepes (Sigma-Aldrich #H4034−500G), 0.36 mM hypoxanthine (Sigma-Aldrich # H9377−25G), 100 µg mL^-1 neomycin (Sigma-Aldrich #N6386−100G) and 0.5% Albumax II (Thermo Fisher #11021−045). Additionally, 2 mM choline chloride (279 mg/L, Sigma-Aldrich #C7527−100G) was added to the culture to block the induction of sexual commitment as described. ^[31^] The RPMI 1640 medium and components were dissolved in water (Milli-Q purified), stirred for at least 3 h, and then sterile filtered (0.22 μm pore size) with a bottle top filter (Corning # 431118). Parasite cultures were maintained in an atmosphere of 3% O2, 4% CO2, and 93% N2 in air-tight chambers at 37 °C. The [^3H]-hypoxanthine incorporation assay was used to test compound activity in the specific parasite lines as described.^[32^] Briefly, compounds were dissolved in DMSO (10 mM) and diluted in a hypoxanthine-free culture medium. A limiting dilution was performed over a 64-fold range (6-step twofold dilution) in a 96-well plate in duplicates. For every starting concentration, a limiting dilution was performed over a 64-fold range (6-step twofold dilution) in a 96-well plate in two biological duplicates. Parasites were added at 100 µL to each well containing the compound to obtain a final parasitemia of 0.3% and haematocrit of 1.25%. The plates were incubated for 48 h before 0.25 µCi of [^3H]-hypoxanthine was added per well for an additional 24 h. Parasites were harvested on a glass-fiber filter with a Microbeta FilterMate cell harvester (Perkin Elmer, Waltham, USA) and radioactivity was counted using a MicroBeta2 liquid scintillation counter (Perkin Elmer, Waltham, US). The results were recorded, processed by subtraction of the mean background signal obtained from the uninfected RBC controls and expressed as percentage of untreated controls. The fifty percent inhibitory concentration (IC50) was calculated by using nonlinear, four parameter (variable slope) curve fitting as described ^[33^] after importing into GraphPad Prism (version 8.3.0)."}, "[7]": {"tested_on": "Dd2 DDD107458 (Dd2 + pfeEF2)", "assay": "[3H]-hypoxanthine incorporation assay", "format": "cell-based, Plasmodium falciparum", "details": "Plasmodium falciparum, DD2, 72 h", "procedure": "as §3, §4"}, "[8]": {"tested_on": "P. falciparum Dd2", "assay": "[3H]-hypoxanthine incorporation assay", "format": "cell-based, Plasmodium falciparum", "details": "Plasmodium falciparum, DD2, 72 h", "procedure": "as §3, §4"}, "[9]": {"tested_on": "Dd2 DSM265 (Dd2 + pfdhodh)", "assay": "[3H]-hypoxanthine incorporation assay", "format": "cell-based, Plasmodium falciparum", "details": "Plasmodium falciparum, 72 h", "procedure": "as §3, §4"}, "[10]": {"tested_on": "Dd2 NITD609 (Dd2 + pfatp4)", "assay": "[3H]-hypoxanthine incorporation assay", "format": "cell-based, Plasmodium falciparum", "details": "Plasmodium falciparum, DD2, 72 h", "procedure": "as §3, §4"}, "[11]": {"tested_on": "P. falciparum K1", "assay": "[3H]-hypoxanthine incorporation assay", "format": "cell-based, Plasmodium falciparum", "details": "Plasmodium falciparum; K1; 72-h assay; mean±s.d.; read-out: IC50", "procedure": "as §3, §4"}, "[12]": {"tested_on": "Dd2 GNF156 (Dd2 + pfcarl)", "assay": "[3H]-hypoxanthine incorporation assay", "format": "cell-based, Plasmodium falciparum", "details": "Plasmodium falciparum, DD2, 72 h", "procedure": "as §3, §4"}, "[13]": {"tested_on": "Dd2 ELQ300 (Dd2 + pfcytb)", "assay": "[3H]-hypoxanthine incorporation assay", "format": "cell-based, Plasmodium falciparum", "details": "Plasmodium falciparum, DD2, 72 h", "procedure": "as §3, §4"}, "[14]": {"tested_on": "Dd2 Fosmidomycin (Dd2 + pfdxr)", "assay": "[3H]-hypoxanthine incorporation assay", "format": "cell-based, Plasmodium falciparum", "details": "Plasmodium falciparum, DD2, 72 h", "procedure": "as §3, §4"}, "[15]": {"tested_on": "P. falciparum NF54 strain", "assay": "[3H]-hypoxanthine incorporation assay, asexual blood stage", "format": "cell-based, Plasmodium falciparum", "details": "Plasmodium falciparum", "procedure": "as §1"}, "[16]": {"tested_on": "3D7^WT", "assay": "[3H]-hypoxanthine incorporation assay", "format": "cell-based", "details": "Plasmodium falciparum, 3D7; 72-h assay; mean±s.d.; read-out: 3D7^WT IC50", "procedure": "^[a] 72-h [^3H] hypoxanthhine incorporation assay; Data is expressed as mean±s.d.. The assay was performed in three independent biological experiments, each in biological duplicates.\nas §4"}, "[17]": {"molecular_target": "PfIspD (Plasmodium falciparum, UniProt W7KNE8)", "sequence (W7KNE8 entry or part of it)": "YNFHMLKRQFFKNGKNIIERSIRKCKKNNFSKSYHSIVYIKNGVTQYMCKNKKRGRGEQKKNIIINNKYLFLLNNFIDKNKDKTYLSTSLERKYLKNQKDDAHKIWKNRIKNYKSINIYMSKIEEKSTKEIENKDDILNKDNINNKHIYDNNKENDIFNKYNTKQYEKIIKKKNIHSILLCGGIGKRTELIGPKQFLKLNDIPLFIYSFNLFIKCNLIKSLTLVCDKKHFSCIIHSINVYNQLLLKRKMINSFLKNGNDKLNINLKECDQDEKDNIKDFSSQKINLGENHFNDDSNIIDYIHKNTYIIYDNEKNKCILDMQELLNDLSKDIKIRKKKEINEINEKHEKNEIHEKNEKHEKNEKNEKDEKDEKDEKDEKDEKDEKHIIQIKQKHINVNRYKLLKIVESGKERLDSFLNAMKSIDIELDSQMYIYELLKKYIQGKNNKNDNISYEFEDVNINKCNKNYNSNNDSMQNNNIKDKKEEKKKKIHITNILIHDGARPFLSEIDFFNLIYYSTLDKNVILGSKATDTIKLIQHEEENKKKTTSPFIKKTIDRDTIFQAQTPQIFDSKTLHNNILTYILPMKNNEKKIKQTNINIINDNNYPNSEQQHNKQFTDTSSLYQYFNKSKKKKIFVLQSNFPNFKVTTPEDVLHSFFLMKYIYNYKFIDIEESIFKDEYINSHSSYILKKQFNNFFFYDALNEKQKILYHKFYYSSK", "assay": "PfIspD inhibition", "format": "biochemical", "details": "mean ± s.d."}, "[18]": {"tested_on": "mRNA translation in NF54 trophozoite-stage parasites", "assay": "Surface sensing of translation (SUnSET) assay", "format": "cell-based, Plasmodium falciparum", "details": "trophozoites 30–35 hpi; 31 at 3x, 50x, 100x IC50; 34 and pyrimethamine at 3x IC50", "procedure": "To confirm the role of 31 as a translation inhibitor, the surface sensing of translation (SUnSET) assay was employed. This involves incubating the culture with a translation inhibitor, puromycin, a structural analogue of aminoacyl tRNA. Puromycin is incorporated in the nascent polypeptide chain and prevents further elongation. When puromcyin is used in sub‐lethal concentrations, incorporation of puromycin in neosynthesized protein correlates with the levels of mRNA translation (Figure 3c, lane2).^[ [27] ^] […] This trend was further confirmed by the quantified western blot signals (Figures 3d and S4C) that are consistent with the iSPP profiling results.\nSUnSET: The SUnSET assay was done as described in. ^[27^]Tightly synchronized NF54 wild type parasites were treated with the compounds for 4h at 30-35 hpi (trophozoite stage). The following compounds and amounts used were: cycloheximide (3xIC50, 1,2 µM; Calbiochem), pyrimethamine (3xIC50, 21 nM; MedChemExpress), 34 (3xIC50, 12 µM), and 31 (3xIC50, 12 nM; 50xIC50, 200 nM; 100xIC50, 400 nM). Parasites were incubated with 1 µg mL^-1 (Sigma P8833) for 1 h at 37 °C and saponin lysis was performed.\nSaponin lysis and Western blot: Saponin lysis was done on infected RBC at ~5% parasitemia to lyse erythrocytes. Parasite cultures were centrifuged at 1,200 g for 5 min at room temperature. Once the supernatant was discarded, 10 volumes of ice-cold 0.1% (w/v) saponin (Calbiochem 558255, dissolved in PBS, and filtered with 0,22) was added, incubated on ice for 10 min and centrifuged for 2,272 g for 15 min at 4 °C. […] The membrane was washed 3 times in PBS-T (3 min incubation in each washing step) and the signal was detected using the chemiluminescent substrate SuperSignal West Pico Plus (Thermo Scientific, REF 34580) and the imaging system Vilber Fusion FX7 Edge 17.10 SN. Quantification of Western blot signal was done by measuring the integrated density of each lane using ImageJ analysis software (version 1.54p). […]"}}, "note": "Like-named read-outs stand apart in the source and are kept apart here.", "data": [{"compound": "C[C@H]1[C@H](OC(=O)CCC(=O)O)O[C@@H]2O[C@@]3(C)CC[C@H]4[C@H](C)CC[C@@H]1[C@@]24OO3", "note": "[Artesunate, artesunate, reference compound]", "values": [{"measurement": "IC50", "setting": "[1]", "value": "0.5 ± 0.1", "unit": "nM"}, {"measurement": "IC50", "setting": "[2]", "value": "2.6 ± 1.5", "unit": "nM"}, {"measurement": "IC50", "setting": "[3]", "value": "1.2 ± 0.6", "unit": "nM"}, {"measurement": "IC50", "setting": "[4]", "value": "2.2 ± 0.6", "unit": "nM"}, {"measurement": "IC50", "setting": "[5]", "value": "1.6 ± 0.3", "unit": "nM"}, {"measurement": "IC50", "setting": "[6]", "value": "0.3 ± 0.1", "unit": "nM"}, {"measurement": "IC50", "setting": "[7]", "value": "0.2 ± 0.2", "unit": "nM"}, {"measurement": "IC50", "setting": "[8]", "value": "0.3 ± 0.2", "unit": "nM"}, {"measurement": "IC50", "setting": "[9]", "value": "0.2 ± 0.01", "unit": "nM"}, {"measurement": "IC50", "setting": "[10]", "value": "0.2 ± 0.01", "unit": "nM"}, {"measurement": "IC50", "setting": "[11]", "value": "0.2 ± 0.01", "unit": "nM"}, {"measurement": "IC50", "setting": "[12]", "value": "0.2 ± 0.02", "unit": "nM"}, {"measurement": "IC50", "setting": "[13]", "value": "0.2 ± 0.01", "unit": "nM"}, {"measurement": "IC50", "setting": "[14]", "value": "0.2 ± 0.01", "unit": "nM"}, {"measurement": "IC50", "setting": "[15]; NF54, 72 h, Table S2, NF54 sensitive strain, 72-h assay, mean±s.d., read-out: IC50", "value": "0.4 ± 0.07", "unit": "nM"}, {"measurement": "IC50", "setting": "[16]", "value": "0.6 ± 0.1", "unit": "nM"}]}, {"compound": "O=C(Nc1cc(S(=O)(=O)N2CCCC2)ccc1O)c1cccc(Oc2ccccc2)c1", "note": "[Compound 1, N-(2-Hydroxy-5-(pyrrolidin-1-ylsulfonyl)phenyl)-3-phenoxybenzamide]", "values": [{"measurement": "IC50", "setting": "[17]", "value": "15 ± 4", "unit": "µM"}, {"measurement": "IC50", "setting": "[15]; NF54, asexual blood stage, mean ± s.d., read-out: PfNF54 IC50 ± s.d.", "value": "592 ± 77.6", "unit": "nM"}]}, {"compound": "CCc1nc(N)nc(N)c1-c1ccc(Cl)cc1", "note": "[Pyrimethamine, reference compound]", "values": [{"measurement": "mRNA translation (puromycin incorporation)", "setting": "[18]", "value": "did not reduce mRNA translation"}]}]}
